US5736629A, “Herbicide resistant rice” (priority 1997, dated 1998)

Assays:
[1] = biological target: T1, AHAS (acetohydroxyacid synthase) in enzyme extracts from normal rice variety Lemont (Oryza sativa subsp. japonica, UniProt Q6K2E8); assay: AHAS enzyme assay, extract from rice variety Lemont; format: biochemical
T1 construct: 40.0 grams (fresh weight) of tissue were extracted in the same manner for each of the three varieties; from tissue; host or cells: stem tissue of greenhouse-grown rice seedlings, variety Lemont (leaf blades removed)
T1 sequence (Q6K2E8 40-644 limits assumed): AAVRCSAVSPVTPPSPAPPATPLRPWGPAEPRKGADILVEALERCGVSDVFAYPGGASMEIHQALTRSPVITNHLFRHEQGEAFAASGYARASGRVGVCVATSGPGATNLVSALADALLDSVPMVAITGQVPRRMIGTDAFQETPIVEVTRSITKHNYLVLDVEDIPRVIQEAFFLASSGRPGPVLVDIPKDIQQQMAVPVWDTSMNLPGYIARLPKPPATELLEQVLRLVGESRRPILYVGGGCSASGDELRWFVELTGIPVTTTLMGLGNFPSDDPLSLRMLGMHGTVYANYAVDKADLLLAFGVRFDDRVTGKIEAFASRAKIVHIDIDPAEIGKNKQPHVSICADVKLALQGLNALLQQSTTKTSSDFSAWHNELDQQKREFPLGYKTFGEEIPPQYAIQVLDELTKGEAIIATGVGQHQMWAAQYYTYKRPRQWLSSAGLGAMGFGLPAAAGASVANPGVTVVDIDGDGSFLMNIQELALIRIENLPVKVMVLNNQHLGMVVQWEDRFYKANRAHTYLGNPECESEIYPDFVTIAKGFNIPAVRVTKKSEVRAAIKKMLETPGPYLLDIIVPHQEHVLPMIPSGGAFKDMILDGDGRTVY
Text: The herbicide resistance of the AHAS enzyme from the ATCC 75295 rice line was compared to the resistance of the AHAS enzymes from the rice varieties "Lemont" and "Mercury," the varieties that were the ancestors of this rice line. The procedures used to assay the activity of acetohydroxyacid synthase were substantially as described in B. K. Singh et al., "Assay of Acetohydroxyacid Synthase," Analytical Biochemistry, vol. 171, pp. 173-179 (1988), except as noted. In the first paragraph of Singh's "Materials and Methods," instead of corn suspension culture cells, stem tissues from greenhouse-grown rice seedlings at the four-leaf stage of development were used. Leaf blades were removed, and 40.0 grams (fresh weight) of tissue were extracted in the same manner for each of the three varieties. […] Pursuit herbicide (imazethapyr) was included in the "standard reaction mixture" for the AHAS assay in the concentrations indicated in Table 1 below. Checks were made of direct acetoin formation during the enzyme assay. Each treatment was conducted with two replicates.

[2] = test system: Non-Resistant Control rice plants (check varieties); assay: Greenhouse test of plant vigor after imazethapyr, non-resistant controls; format: in vivo; details: for Rating of rice plant vigor: 36 days after treatment at 2-3 leaf stage, 10-point scale, 0 = dead plant, 10 = no visible injury
Text: (§1) In the greenhouse tests, pots were planted with F3 seed from crosses between the two lines. Each pot was planted with seed from a single panicle from a single plant; each pot was therefore the equivalent of a headrow. A total of 140 pots were planted in this manner, along with 40 pots of various non-resistant genotypes for comparison. Imazethapyr was applied at the 2-3 leaf stage two weeks after planting, at rates equivalent to 0.063 lb. active ingredient (a.i.) per acre, 0.125 lb. a.i./acre, and 0.313 lb. a.i./acre.
(§2) Table 2 summarizes measurements taken 36 days after spraying rice at the 2-3 leaf stage of development.

[3] = test system: rice line ATCC 75295 (first resistance mechanism only); assay: Greenhouse test of plant vigor after imazethapyr, ATCC 75295; format: in vivo; details: for Rating of rice plant vigor: 36 days after treatment at 2-3 leaf stage, 10-point scale, 0 = dead plant, 10 = no visible injury
Text: as §1, §2

[4] = test system: mutagenised rice seedlings of ten rice varieties; assay: Field screen of mutagenised rice seedlings, all other plants; format: in vivo; details: 2X treatment: nicosulfuron 0.063 lb a.i. per acre, imazethapyr 0.125 lb a.i. per acre; 0.25% non-ionic surfactant; 3-4 leaf stage; about four weeks later
Text: The second resistance mechanism resulted from inducing mutations in seeds of each of ten rice varieties. Mutations were induced by exposure either to gamma rays or to the chemical mutagen ethyl methanesulfonate (EMS). Ten-pound lots of seed of each variety were subjected to 25 k-rad of gamma irradiation from a Cobalt-60 source at the Nuclear Science Center, Louisiana State University, Baton Rouge, La. prior to planting. An additional ten pounds of seed of each variety was divided into three equal portions; and each portion was soaked for 16 hours in either 0.1%, 0.5%, or 1% EMS immediately prior to planting. Several hundred pounds of seed were harvested from plants grown from the seeds subjected to these mutagenic treatments.
The following spring the harvested seed was planted in strips in a field planting occupying a total of about three acres. At the 3-4 leaf stage of seedling development, herbicides were applied to screen for herbicide-resistant mutants. Half of the seedlings of each variety were sprayed with a 2X treatment of nicosulfuron, and half were sprayed with a 2X treatment of imazethapyr, in both cases by a tractor-mounted sprayer. Nicosulfuron was applied at the rate of 0.063 lb active ingredient (a.i.) per acre, and imazethapyr was applied at 0.125 lb a.i. per acre. Non-ionic surfactant (0.25%) was added to each spray solution. […]

[5] = test system: progeny of the mutant rice plant (ATCC 97523); assay: Subsequent greenhouse and field testing of progeny of the surviving plant; format: in vivo; details: herbicides applied either pre-emergence or post-emergence
Text: (Imazamox is sold by American Cyanamid under the trade name Raptor, and has as active ingredient (+)-5-methoxymethyl-2-(4-isopropyl-4-methyl-5-oxo-2-imidazolin-2-yl) nicotinic acid. Imazameth is sold by American Cyanamid under the trade name Cadre, and has as active ingredient (±)-2-[4,5-dihydro-4-methyl-4-(1-methyl-ethyl)-5-oxo-1H-imidazol-2-yl]- 5-methyl-3-pyridinecarboxylicacid;alternatechemicalname (±)-2-(4-isopropyl-4-methyl-5-oxo-2-imidazolin-2-yl)-5-methylnicotinic acid). Imazapyr is sold by American Cyanamid under the trade name Arsenal, and has active ingredient 2-[4,5-dihydro-4-methyl-4-(1-methylethyl)-5-oxo-1H-imidazol-2-yl]-3-pyridinecarboxylic acid) This line is resistant to herbicides applied either pre-emergence or post-emergence.

Compound CCc1cnc(C2=NC(C)(C(C)C)C(=O)N2)c(C(=O)O)c1 (racemic) [imazethapyr, (±)-2-[4,5-dihydro-4-methyl-4-(1-methylethyl)-5-oxo-1H-imidazol-2-yl]-5-ethyl-3-pyridinecarboxylic acid] has an activity at 0.1 µM ([1]; imazethapyr 0.1 μM) of 102%, an activity at 1 µM ([1]; imazethapyr 1 μM) of 102% and an activity at 10 µM ([1]; imazethapyr 10 μM) of 87%. The activity at 100 µM ([1]; imazethapyr 100 μM) was 81%, the “Rating of rice plant vigor” value ([2]; 0.063 lb. a.i./acre) was 0.33 ± 0.18 and the “Rating of rice plant vigor” value ([2]; 0.125 lb. a.i./acre) was 0.12 ± 0.06. The “Rating of rice plant vigor” value ([2]; 0.313 lb. a.i./acre) was 0.15 ± 0.15, the Mortality ([2]; check varieties, all treatments (0.063, 0.125, 0.313 lb. a.i./acre)) was 100% and the “Effect on plants (in words)” value ([2]; non-resistant rice, 0.063 pounds active ingredient per acre) was “completely killed”. For the same compound, the “Effect on plants (in words)” value ([2]; nonresistant controls, each of the nonzero rates (0.063, 0.125, 0.313 lb. a.i./acre)) was “killed”, the “Rating of rice plant vigor” value ([3]; 0.063 lb. a.i./acre) was 0.61 ± 0.03 and the “Rating of rice plant vigor” value ([3]; 0.125 lb. a.i./acre) was 0.81 ± 0.45. For the same compound, the “Rating of rice plant vigor” value ([3]; 0.313 lb. a.i./acre) was “about 0.6”, the “Rating of rice plant vigor” value ([3]; 0.313 lb. a.i./acre, listed as Imazethapyr) was 0.55 ± 0.55 and the “Time to visible resumption of growth after herbicide application” value ([3]; ATCC 75295 plants, greenhouse test) was “about three weeks”. For the same compound, the “Visible injury (in words)” value ([3]; plants with only the first resistance mechanism, 0.313 lb a.i./acre, 36 days after treatment) was “substantial injury”, the “Symptoms of injury (in words)” value [4] was “either severely injured or dead” and the “Resistance of the rice line (in words)” value [5] was “resistance”.
